In US20260183350A1, “ANTIBIOTIC-RESISTANT BACTERIA” (priority 2022, published 2026):

Tests used:
faecal microbiota = test: Faecal batch culture with antibiotics promoting CRE colonisation: 1H-NMR of nutrients and metabolites; assay type: cell-based, human; conditions: 11 healthy donors, antibiotic at faecal concentration, 24 hours anaerobic
Procedure: The inventors performed faecal culture experiments to measure the effects of eight broad-spectrum antibiotics on the faecal microbiota collected from 11 healthy human donors. Faecal culture experiments were performed under anaerobic conditions using a complex gut growth medium that was designed to mimic the nutrients found in the human distal gut (McDonald, J. A. et al. Evaluation of microbial community reproducibility, stability and composition in a human distal gut chemostat model. J. Microbiol. Methods 95, 167-174 (2013)). […] Moon, Y. S., Chung, K. C. & Gill, M. A. Pharmacokinetics of meropenem in animals, healthy volunteers, and patients. Clin Infect Dis 24, S249-S255 (1997). Kager, L., Brismar, B., Malmborg, A. S. & Nord, C. E. Imipenem concentrations in colorectal surgery and impact on the colonic microflora. Antimicrob Agents Chemother 33, 204-8 (1989). Pletz, M. et al. Ertapenem pharmacokinetics and impact on intestinal microflora, in comparison to those of ceftriaxone, after multiple dosing in male and female volunteers. Antimicrob Agents Chemother 48, 3765-72 (2004). Nord, C. E., Brismar, B., Kasholm-Tengve, B. & Tunevall, G. Effect of piperacillin/tazobactam treatment on human bowel microflora. J Antimicrob Chemother 31, 61-5 (1993). […] Antimicrob Agents Chemother 63, 2244 (2019). Pessôa de Menezes e Silva, C H. Elaboration and evaluation of a new screening medium for detection and presumptive identification of extended-spectrum beta-lactamase-producing organisms (ESBL). Braz J Microbiol 31, 271-274 (2000). Brismar, B., Edlund, C., Malmborg, A. S. & Nord, C. […] Antimicrob Agents Chemother 34, 481-3 (1990)). Cultures were incubated anaerobically at 37° C. for 24 hours. Samples were analysed by ^1H-NMR spectroscopy (for nutrient and metabolite profiling) and […] rRNA gene sequencing with 16S rRNA gene qPCR (for bacterial composition and biomass) (McDonald, J. A. K. et a/. Inhibiting Growth of Clostridioides difficile by Restoring Valerate, Produced by the Intestinal Microbiota. Gastroenterology 155, 1495-1507 (2018)).
Supernatants were prepared from faeces by vortexing 300 mg of faeces in 900 μl of HPLC-grade water for 10 minutes at 3000 rpm followed by centrifugation at 17,000×g for 10 minutes at 4° C. Supernatants were prepared from faecal culture samples by centrifugation at 17,000×g for 10 minutes at 4° C. Supernatants were frozen at −80° C. until they were ready for analysis.
^1H-NMR spectroscopy was performed as previously described (McDonald, J. A. K. et al. Inhibiting Growth of Clostridioides difficile by Restoring Valerate, Produced by the Intestinal Microbiota. Gastroenterology 155, 1495-1507 (2018)). Briefly, sample supernatants were randomized and defrosted at room temperature for 1 hour. Sample supernatants were then centrifuged for 10 min at 17 000×g and 4° C. The pellet was discarded and 400 μl of supernatant was added to 250 μl NMR buffer (28.85 g Na2HPO4, 5.25 g NaH2PO4, 1 mM TSP, 3 mM NaN3, deuterium oxide to 1 L, pH 7.4). 600 μl of sample was used to fill each 5 mm NMR tube to be loaded into the SampleJet system.
^1H-NMR spectroscopy was performed using the Bruker AVANCE III HD 800 MHz spectrometer (Bruker Bio-Spin, Rheinstetten, Germany). 1D spectra (a standard NOESYGPPR1D pulse sequence (RD-90°-t1-90°-tm-90°-ACQ)) as well as 2D spectra (standard 2D JRESGPPRQF pulse sequence) were acquired. A recycle delay of 4 seconds and mixing time of 100 ms was used. The 90° pulse length was approximately 10 μs and 32 scans were recorded.
NMR spectra were imported into MATLAB r2019b (The Mathworks, USA) using an in-house script. Spectra were aligned and the water (4.6-5 ppm) and TSP (−0.2-0.2 ppm) peaks were cut. Compounds were identified by comparison to spectral databases in Chenomx NMR Suite (Chenomx, Canada). Representative peaks were integrated for quantification of compounds.

[1] = tested on: NDM-1 Enterobacter cloacae; test: Carbon utilisation assay; assay type: cell-based; conditions: anaerobic; M9 minimal medium, 0.5% (w/v) carbon source
Procedure: (§1) New Delhi Metallo-β-lactamase 1 (NDM-1) Escherichia coli, NDM-1 Klebsiella pneumoniae, and NDM-1 Enterobacter cloacae were isolated from patients with intestinal CRE colonisation from the Imperial College Healthcare NHS Trust via rectal swab (REC ref. 19/LO/0112). The species were assigned by matrix assisted laser desorption ionization-time of flight (MALDI-TOF) mass spectrometry and later confirmed with 16S rRNA gene sequencing. CRE status was determined using X-pert Carba-R PCR detection (Cepheid, Sunnyvale, CA, USA), (Otter, J. A. et al. Detecting carbapenemase-producing Enterobacterales (CPE): an evaluation of an enhanced CPE infection control and screening programme in acute care. J Antimicrob Chemother 75, 2670-2676 (2020)).
(§2) Growth of CRE isolates on sole carbon or nitrogen sources was tested by inoculating each CRE isolate into a minimal medium supplemented with the nutrient of interest. First, CRE isolates were passaged from frozen glycerol stocks on Reasoner's 2A agar (R2A) plates. Cells were then suspended in M9 minimal media to a turbidity of 42% using a Turbidimeter (Biolog Inc.), then diluted a further 1 in 6 to inoculate the carbon or nitrogen utilisation assays. M9 minimal media contained the following (at final concentrations): 22 mM KH2PO4, 42 mM Na2HPO4, 9 mM NaCl, 0.49 mM MgSO4·7H2O, 0.09 mM CaCl2), 0.011 mM FeSO4·7H2O. For the carbon assays the M9 minimal medium was also supplemented with 0.1% (w/v) NH4Cl (as the nitrogen source) and the carbon sources were individually tested at 0.5% (w/v) concentration. For the nitrogen assays the M9 minimal medium was also supplemented with 0.5% (w/v) glucose (as the carbon source) and the nitrogen sources were individually tested at 0.1% (w/v) concentration. Cultures were incubated anaerobically and aerobically in a plate reader and OD600 readings were collected every 15 minutes for 24 hours.
(§3) Growth curves were analysed in Python (v3.6.5) using the AMiGA software (Midani, F. S., Collins, J. & Britton, R. A. AMiGA: Software for Automated Analysis of Microbial Growth Assays. mSystems 6, e0050821 (2021)). Growth of each isolate was measured with 6 wells from 2-3 independent experiments. Growth curves were normalised to the no substrate control using the subtraction method. AMiGA performed Gaussian Process regression to test differential growth between the substrate and the no substrate control. The functional difference in the OD (and its credible interval) was also computed between the substrate and the no substrate control.

[2] = tested on: NDM-1 Klebsiella pneumoniae; test: Carbon utilisation assay; assay type: cell-based; conditions: M9 minimal medium, 0.5% (w/v) carbon source
Procedure: as §1, §2, §3

NDM-1 Escherichia coli [3] = test: Carbon utilisation assay; assay type: cell-based; conditions: M9 minimal medium, 0.5% (w/v) carbon source
Procedure: as §1, §2, §3

[4] = tested on: vancomycin-resistant E. faecium; test: VRE nutrient utilization protocol: carbon sources; assay type: cell-based, Enterococcus faecium; conditions: aerobic; VRE minimal medium
Procedure: (§4) VRE minimal media consists of potassium phosphate monobasic (4 g/L), potassium phosphate dibasic (14 g/L), sodium citrate (1 g/L), magnesium sulphate (0.2 g/L), ammonium sulphate (2 g/L), adenosine (0.04 g/L), thymine (0.04 g/L), Kao and Michayluk vitamin solution [Sigma, K3129, 50× Stock](5×), glucose (1 g/L) and amino acid solution [Sigma, R7131, RPMI-1640, 50×](25×). If the study was performed under anaerobic conditions, fumarate (5.2 g/L) was added to increase growth of VRE strains. Carbon-free minimal media was prepared by leaving out glucose while nitrogen-free minimal media was prepared without the amino acid solution. Media was filter sterilized with a 0.22 micron filter and used immediately aerobically or degassed overnight if used anaerobically.
(§5) VRE strains were grown on R2A overnight before the cells were suspended in 0.9% saline to an OD of 0.38 (λ=595 nm). A 10% dilution of the cell suspension was prepared using VRE minimal media to achieve a final well OD of […] (λ=595 nm) greater than the sterile media OD. Both carbon and nitrogen source utilization were evaluated by adding the inoculated media and a filter-sterilised nutrient source solution into a well in a 1:1 ration to a final volume of 100 μL in aerobic tests and 200 μL in anaerobic tests. Carbon sources were tested individually and compared to a carbon-free control. To test nitrogen source utilization, a nitrogen source solution was prepared containing L-alanine (2 g/L), L-arginine (2.5 g/L, L-asparagine (0.71 g/L), L-aspartate (0.25 g/L), L-cysteine (0.625 g/L), L-glutamate (0.25 g/L), L-Glycine (0.125 g/L), L-histidine (0.1875 g/L), L-isoleucine (0.625 g/L), L-leucine (0.625 g/L), L-lysine HCl (0.5 g/L), L-methionine (0.1875 g/L), L-phenylalanine (0.1875 g/L), L-proline (0.25 g/L), L-serine (0.375 g/L), L-threonine (0.25 g/L), L-tryptophan (0.0625 g/L), L-tyrosine (0.29 g/L), L-valine (0.25 g/L), N-acetylglucosamine (2 g/L), and uracil (2.5 g/L). To test the strains' ability to utilize individual nitrogen sources, separate solutions were prepared eliminating one nitrogen source each. The change in growth compared to the complete nitrogen source solution control was used to determine nitrogen utilization. All carbon and nitrogen sources were tested in a technical triplicate for each biological replicate. Aerobic plates were incubated with a plate seal while anaerobic plates were not. The aerobic plate reader was set to read the plate (λ=595 nm, 37° C., 22 flashes per well, orbital shaking of 100 rpm for 15 s prior to each read) every 15 minutes for 24 hours. The anaerobic plate reader read the plate (λ=595 nm, 37° C., stationary) every 15 minutes for 24 hours.

[5] = tested on: vancomycin-resistant E. faecalis; test: VRE nutrient utilization protocol: carbon sources; assay type: cell-based, Enterococcus faecalis; conditions: aerobic; VRE minimal medium
Procedure: as §4, §5

NDM-1 Escherichia coli [6] = test: Nutrient preference assay (nutrient mixture); assay type: cell-based; conditions: aerobic; M9 with […] of each nutrient, up to 24 hours
Procedure: as §1
CRE isolates were passaged once from frozen glycerol stocks on R2A plates. Cells were suspended in M9 minimal media to a turbidity of 42% using a Turbidimeter (Biolog Inc.), then diluted 1 in 6 to inoculate the nutrient preference assays. M9 minimal media was supplemented with 0.015% of each of the following: L-arabinose, D-fructose, L-fucose, D-galactose, D-glucose, D-mannose, D-ribose, D-xylose, N-acetylglucosamine, D-maltose, sucrose, D-trehalose, L-alanine, L-arginine, L-aspartate, L-glutamate, L-glycine, L-isoleucine, L-leucine, L-lysine, L-methionine, L-phenylalanine, L-proline, L-threonine, L-tryptophan, L-tyrosine, L-valine, uracil, and succinate. Cultures were incubated anaerobically and aerobically in a plate reader and OD600 readings were collected every 15 minutes for 24 hours. Cultures were also incubated anaerobically and aerobically for 24 h and samples were collected at 0, 4, 8, and 24 hours post-inoculation for 1H-NMR spectroscopy. Changes in nutrients and metabolites by CRE isolates was compared to the sterile media control over time using a two-way mixed ANOVA followed by pairwise comparisons with Bonferroni correction. […]

| Molecule | Change in butyrate concentration in faecal cultures (faecal microbiota) | Use as sole carbon source to support E. cloacae growth [1] | Use as sole carbon source to support K. pneumoniae growth ([2]; anaerobic) | Use as sole carbon source to support E. coli growth (NDM-1 Escherichia coli [3]; anaerobic) | Use as sole carbon source to support E. faecium growth [4] | Use as sole carbon source to support E. faecalis growth [5] | Use as sole carbon source to support K. pneumoniae growth ([2]; aerobic) | Use as sole carbon source to support E. coli growth (NDM-1 Escherichia coli [3]; aerobic) | Utilisation of nutrient by E. coli from nutrient mixture (1H-NMR) (NDM-1 Escherichia coli [6]) |
| --- | --- | --- | --- | --- | --- | --- | --- | --- | --- |
| C[C@@H](O)[C@H]1C(=O)N2C(C(=O)O)=C(S[C@@H]3CN[C@H](C(=O)Nc4cccc(C(=O)O)c4)C3)[C@H](C)[C@H]12 [ETP, ertapenem] | decreased | – | – | – | – | – | – | – | – |
| O=C[C@H](O)[C@@H](O)[C@@H](O)[C@H](O)CO [galactose, D-galactose] | – | could use | could use | could use | could use | could use | – | – | – |
| O=C(CO)[C@@H](O)[C@H](O)[C@H](O)CO [fructose, D-fructose] | – | could use | could use | could use | could use | could use | – | – | – |
| C[C@@H](O)[C@H]1C(=O)N2C(C(=O)O)=C(S[C@@H]3CN[C@H](C(=O)N(C)C)C3)[C@H](C)[C@H]12 [MEM, meropenem] | increased | – | – | – | – | – | – | – | – |
| O=C[C@H](O)[C@H](O)[C@H](O)CO [ribose, D-ribose] | – | could use | – | – | could use | could use | able to grow | able to grow | – |
| imipenem/cilastatin [IPM] | increased | – | – | – | – | – | – | – | – |
| OC[C@H]1O[C@H](O[C@H]2O[C@H](CO)[C@@H](O)[C@H](O)[C@H]2O)[C@H](O)[C@@H](O)[C@@H]1O [trehalose, D-trehalose] | – | could use | could use | could use | could use | could use | – | – | – |
| OC[C@H]1O[C@@](CO)(O[C@H]2O[C@H](CO)[C@@H](O)[C@H](O)[C@H]2O)[C@@H](O)[C@@H]1O [sucrose] | – | could use | could use | – | – | could use | – | able to grow | moderate utilisation |
